According to patent US5126337A, “Thiazetoquinoline-3-carboxylic acid derivative and a pharmaceutical composition comprising the same” (priority 1989, dated 1992):
≈ marks a conversion by molar mass, not a printed value.

Experiments:
Male mice of ddY strain = test: Convulsion inducing activity in combination with fenbufen; conditions: 100 mg/kg (i.p.), 30 min after fenbufen 100 mg/kg orally
Method: Male mice of ddY strain, 5 weeks old, were used. Fenbufen suspended in 0.5% carboxymethyl cellulose was administered orally at a dose of 100 mg/kg. After thirty minutes, test compounds suspended in 0.5% carboxymethyl cellulose were injected intraperitoneally (i.p.) at a dose of 100 mg/kg or 300 mg/kg.

[1] = system: Staphylococcuss aureus HPC 292; test: Antibacterial spectrum, MIC by twofold agar dilution method; assay type: cell-based; conditions: 10^6 cfu/ml; clinically isolated strain, Gram +; 18 hrs at 37° C; read-out: MIC
Method: (§1) Overnight cultures in Mueller-Hinton broth were suspended by buffered saline gelatin. One loopful of the bacterial suspension (10^6 or 10^8 colony-forming units/ml) was incubated onto the plates containing test compounds. The plates were incubated for 18 hrs at 37° C. The MIC was defined by the lowest concentration of the drug that inhibited visible growth of bacteria.

[2] = system: Escherichia coli NIHJ JC-2; test: as above; assay type: cell-based; conditions: NIHJJC2, 10^6 cfu/ml, standard laboratory strain, Gram -, 18 hrs at 37° C
Method: as §1

[3] = system: Enterobacter cloacae HNR 1939; test: as above; assay type: cell-based; conditions: HNR1939, 10^6 cfu/ml, clinically isolated strain, Gram -, 18 hrs at 37° C
Method: as §1

[4] = system: Staphylococcuss aureus HPC 308; test: as above; assay type: cell-based; conditions: 10^6 cfu/ml; clinically isolated strain, Gram +; 18 hrs at 37° C
Method: as §1

[5] = system: Serratia marcescens HNR 1767; test: as above; assay type: cell-based; conditions: HNR1767, 10^6 cfu/ml, clinically isolated strain, Gram -, 18 hrs at 37° C
Method: as §1

Enterobacter cloacae 963 = test: as above; assay type: cell-based; conditions: 10^6 cfu/ml, standard laboratory strain, Gram -, 18 hrs at 37° C
Method: as §1

[6] = system: Acinetobacter calcoaceticus HNR 904; test: as above; assay type: cell-based; conditions: HNR904, 10^6 cfu/ml, clinically isolated strain, Gram -, 18 hrs at 37° C
Method: as §1

[7] = system: Pseudomonas aeruginosa HNR 1489; test: as above; assay type: cell-based; conditions: HNR1489, 10^6 cfu/ml, clinically isolated strain, Gram -, 18 hrs at 37° C
Method: as §1

[8] = system: Enterobacter cloacae HNR 1941; test: as above; assay type: cell-based; conditions: HNR1941, 10^6 cfu/ml, clinically isolated strain, Gram -, 18 hrs at 37° C
Method: as §1

[9] = system: Enterococcus faecalis HPC 975; test: as above; assay type: cell-based; conditions: HPC975, 10^6 cfu/ml, clinically isolated strain, Gram +, 18 hrs at 37° C
Method: as §1

[10] = system: Serratia marcescens HNR 1792; test: as above; assay type: cell-based; conditions: HNR1792, 10^6 cfu/ml, clinically isolated strain, Gram -, 18 hrs at 37° C
Method: as §1

[11] = system: Klebsiella pneumoniae HNR 828; test: as above; assay type: cell-based; conditions: HNR828, 10^6 cfu/ml, clinically isolated strain, Gram -, 18 hrs at 37° C
Method: as §1

[12] = system: Pseudomonas aeruginosa IFO 3445; test: as above; assay type: cell-based; conditions: IFO3445, 10^6 cfu/ml, standard laboratory strain, Gram -, 18 hrs at 37° C
Method: as §1

[13] = system: Pseudomonas aeruginosa HNR 1537; test: as above; assay type: cell-based; conditions: HNR1537, 10^6 cfu/ml, clinically isolated strain, Gram -, 18 hrs at 37° C
Method: as §1

[14] = system: Acinetobacter calcoaceticus HNR 916; test: as above; assay type: cell-based; conditions: HNR916, 10^6 cfu/ml, clinically isolated strain, Gram -, 18 hrs at 37° C
Method: as §1

[15] = system: Acinetobacter calcoaceticus HNR 939; test: as above; assay type: cell-based; conditions: HNR939, 10^6 cfu/ml, clinically isolated strain, Gram -, 18 hrs at 37° C
Method: as §1

[16] = system: Staphylococcuss aureus HPC 527; test: as above; assay type: cell-based; conditions: 10^6 cfu/ml; clinically isolated strain, Gram +; 18 hrs at 37° C
Method: as §1

[17] = system: Pseudomonas aeruginosa HNR 1472; test: as above; assay type: cell-based; conditions: HNR1472, 10^6 cfu/ml, clinically isolated strain, Gram -, 18 hrs at 37° C
Method: as §1

[18] = system: Enterobacter cloacae HNR 1946; test: as above; assay type: cell-based; conditions: HNR1946, 10^6 cfu/ml, clinically isolated strain, Gram -, 18 hrs at 37° C
Method: as §1

[19] = system: Serratia marcescens IAM 1184; test: as above; assay type: cell-based; conditions: IAM1184, 10^6 cfu/ml, standard laboratory strain, Gram -, 18 hrs at 37° C
Method: as §1

[20] = system: Klebsiella pneumoniae HNR 858; test: as above; assay type: cell-based; conditions: HNR858, 10^6 cfu/ml, clinically isolated strain, Gram -, 18 hrs at 37° C
Method: as §1

[21] = system: Enterococcus faecalis HPC 984; test: as above; assay type: cell-based; conditions: HPC984, 10^6 cfu/ml, clinically isolated strain, Gram +, 18 hrs at 37° C
Method: as §1

[22] = system: Klebsiella pneumoniae HNR 869; test: as above; assay type: cell-based; conditions: HNR869, 10^6 cfu/ml, clinically isolated strain, Gram -, 18 hrs at 37° C
Method: as §1

[23] = system: Serratia marcescens HNR 1544; test: as above; assay type: cell-based; conditions: HNR1544, 10^6 cfu/ml, clinically isolated strain, Gram -, 18 hrs at 37° C
Method: as §1

[24] = system: Enterococcus faecalis HPC 948; test: as above; assay type: cell-based; conditions: HPC948, 10^6 cfu/ml, clinically isolated strain, Gram +, 18 hrs at 37° C
Method: as §1

[25] = system: Staphylococuss aureus FDA 209PJC-1; test: as above; assay type: cell-based; conditions: 10^6 cfu/ml; standard laboratory strain, Gram +; 18 hrs at 37° C
Method: as §1

[26] = system: Klebsiella pneumoniae PCI-602; test: as above; assay type: cell-based; conditions: PCI602, 10^6 cfu/ml, standard laboratory strain, Gram -, 18 hrs at 37° C, read-out: MIC
Method: as §1, with “Minimum inhibitory concentrations (MIC) of test compounds were determined by the twofold agar dilution method (Chemotherapy, 29(1), 76(1981)). Overnight” for “Overnight”

Row | MIC [1] | MIC [2] | MIC [3] | MIC [4] | MIC [5] | MIC (Enterobacter cloacae 963) | MIC [6] | MIC [7] | MIC [8] | MIC [9] | MIC [10] | MIC [11] | MIC [12] | MIC [13] | MIC [14] | MIC [15] | MIC [16] | MIC [17] | MIC [18] | MIC [19] | Compound | other results
1 |  |  |  |  |  |  |  |  |  |  |  |  |  |  |  |  |  |  |  |  | CC1Sc2c(C(=O)O)c(=O)c3cc(F)c(N4CCNCC4)c(F)c3n21 (stereo not shown) [Reference Drug C, 6,8-difluoro-1-methyl-4-oxo-7-(1-piperazinyl)-1H,4H-[1,3]thiazeto[3,2-a]quinoline-3-carboxylic acid, reference compound] | Number of convulsion induced/Number of animals (Male mice of ddY strain): 6/6
2 | 6.25 µg/mL (≈ 15.8 µM) | 0.1 µg/mL (≈ 0.253 µM) | 0.78 µg/mL (≈ 1.97 µM) | 1.56 µg/mL (≈ 3.95 µM) | 25 µg/mL (≈ 63.2 µM) | 0.2 µg/mL (≈ 0.506 µM) | 12.5 µg/mL (≈ 31.6 µM) | 0.78 µg/mL (≈ 1.97 µM) | 25 µg/mL (≈ 63.2 µM) | 6.25 µg/mL (≈ 15.8 µM) | 12.5 µg/mL (≈ 31.6 µM) | 12.5 µg/mL (≈ 31.6 µM) | 0.78 µg/mL (≈ 1.97 µM) | 100 µg/mL (≈ 253 µM) | 0.1 µg/mL (≈ 0.253 µM) | 0.78 µg/mL (≈ 1.97 µM) | 0.2 µg/mL (≈ 0.506 µM) | 50 µg/mL (≈ 126 µM) | 0.78 µg/mL (≈ 1.97 µM) | 0.2 µg/mL (≈ 0.506 µM) | CC1Sc2c(C(=O)O)c(=O)c3cc(F)c(N4CCC(N(C)C)C4)c(F)c3n21 (stereo not shown) [Example 36, 7-(3-Dimethylamino-1-pyrrolidinyl)-6,8-difluoro-1-methyl-4-oxo-1H,4H-[1,3]thiazeto[3,2-a]quinoline-3-carboxylic acid] | MIC [20]: 0.78 µg/mL (≈ 1.97 µM); MIC [21]: 0.78 µg/mL (≈ 1.97 µM); MIC [22]: 6.25 µg/mL (≈ 15.8 µM); MIC [23]: 0.2 µg/mL (≈ 0.506 µM); MIC [24]: 3.13 µg/mL (≈ 7.92 µM); MIC [25]: 0.2 µg/mL (≈ 0.506 µM); MIC [26]: 0.025 µg/mL (≈ 0.0632 µM)
3 | 12.5 µg/mL (≈ 30.3 µM) | 0.1 µg/mL (≈ 0.243 µM) | 0.39 µg/mL (≈ 0.947 µM) | 0.78 µg/mL (≈ 1.89 µM) | 12.5 µg/mL (≈ 30.3 µM) | 0.1 µg/mL (≈ 0.243 µM) | 3.13 µg/mL (≈ 7.6 µM) | 0.78 µg/mL (≈ 1.89 µM) | 6.25 µg/mL (≈ 15.2 µM) | 12.5 µg/mL (≈ 30.3 µM) | 3.13 µg/mL (≈ 7.6 µM) | 6.25 µg/mL (≈ 15.2 µM) | 0.78 µg/mL (≈ 1.89 µM) | 25 µg/mL (≈ 60.7 µM) | 0.1 µg/mL (≈ 0.243 µM) | 1.56 µg/mL (≈ 3.79 µM) | 0.1 µg/mL (≈ 0.243 µM) | 12.5 µg/mL (≈ 30.3 µM) | 0.39 µg/mL (≈ 0.947 µM) | 0.2 µg/mL (≈ 0.486 µM) | CC1Sc2c(C(=O)O)c(=O)c3cc(F)c(N4CC[C@H](N(C)C)C4)c(Cl)c3n21 (stereo partly drawn) [Example 35, 8-Chloro-7-((S)-3-dimethylamino-1-pyrrolidinyl)-6-fluoro-1-methyl-4-oxo-1H,4H-[1,3]thiazeto[3,2-a]quinoline-3-carboxylic acid] | MIC [20]: 0.39 µg/mL (≈ 0.947 µM); MIC [21]: 0.39 µg/mL (≈ 0.947 µM); MIC [22]: 1.56 µg/mL (≈ 3.79 µM); MIC [23]: 0.1 µg/mL (≈ 0.243 µM); MIC [24]: 1.56 µg/mL (≈ 3.79 µM); MIC [25]: 0.1 µg/mL (≈ 0.243 µM); MIC [26]: 0.05 µg/mL (≈ 0.121 µM)
